Source: ChEMBL document CHEMBL3751710, “Cyclic RGD peptidomimetics containing 4- and 5-amino-cyclopropane pipecolic acid (CPA) templates as dual αVβ3 and α5β1 integrin ligands” (Bioorg Med Chem, 2016)
pIC50: −log10 of the molar value.

Key:
Integrin alpha-V/beta-3 = Integrin alpha-V/beta-3 (Homo sapiens, UniProt P05106+P06756); test: Binding affinity to integrin alphav/beta3 heterodimer in human M21 cells assessed as inhibition of integrin-mediated human M21 cell adhesion to vitronectin incubated for 30 mins in presence of MnCl2; type: cell-based
Integrin alpha-5/beta-1 = Integrin alpha-5/beta-1 (Homo sapiens, UniProt P05556+P08648); test: Binding affinity to integrin alpha5/beta1 heterodimer in human K562 cells assessed as inhibition of integrin-mediated human K562 cell adhesion to fibronectin incubated for 30 mins in presence of MnCl2; type: cell-based
Sequence of Integrin alpha-5/beta-1 (P05556 21-798 limits assumed): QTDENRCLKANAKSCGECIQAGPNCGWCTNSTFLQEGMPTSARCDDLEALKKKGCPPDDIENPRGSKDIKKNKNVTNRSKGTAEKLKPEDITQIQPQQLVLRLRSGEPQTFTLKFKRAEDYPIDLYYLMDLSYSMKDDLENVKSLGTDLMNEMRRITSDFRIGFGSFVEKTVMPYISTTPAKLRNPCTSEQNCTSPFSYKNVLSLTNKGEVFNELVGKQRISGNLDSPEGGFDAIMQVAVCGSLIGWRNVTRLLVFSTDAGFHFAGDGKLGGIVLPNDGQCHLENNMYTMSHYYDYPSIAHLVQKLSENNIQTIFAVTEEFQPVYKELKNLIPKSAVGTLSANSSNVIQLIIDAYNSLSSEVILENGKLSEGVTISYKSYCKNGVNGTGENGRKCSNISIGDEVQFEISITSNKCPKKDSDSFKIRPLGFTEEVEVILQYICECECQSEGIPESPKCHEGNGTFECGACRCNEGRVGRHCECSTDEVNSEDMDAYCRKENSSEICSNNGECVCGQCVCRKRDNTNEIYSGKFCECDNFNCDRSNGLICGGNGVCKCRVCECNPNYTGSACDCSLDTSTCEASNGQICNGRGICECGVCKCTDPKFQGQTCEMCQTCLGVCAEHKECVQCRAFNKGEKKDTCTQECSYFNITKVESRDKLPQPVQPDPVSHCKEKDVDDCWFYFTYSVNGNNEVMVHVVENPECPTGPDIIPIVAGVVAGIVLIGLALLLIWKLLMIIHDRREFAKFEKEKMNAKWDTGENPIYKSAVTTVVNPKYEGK
Sequence of Integrin alpha-5/beta-1 (P08648 42-894 limits assumed): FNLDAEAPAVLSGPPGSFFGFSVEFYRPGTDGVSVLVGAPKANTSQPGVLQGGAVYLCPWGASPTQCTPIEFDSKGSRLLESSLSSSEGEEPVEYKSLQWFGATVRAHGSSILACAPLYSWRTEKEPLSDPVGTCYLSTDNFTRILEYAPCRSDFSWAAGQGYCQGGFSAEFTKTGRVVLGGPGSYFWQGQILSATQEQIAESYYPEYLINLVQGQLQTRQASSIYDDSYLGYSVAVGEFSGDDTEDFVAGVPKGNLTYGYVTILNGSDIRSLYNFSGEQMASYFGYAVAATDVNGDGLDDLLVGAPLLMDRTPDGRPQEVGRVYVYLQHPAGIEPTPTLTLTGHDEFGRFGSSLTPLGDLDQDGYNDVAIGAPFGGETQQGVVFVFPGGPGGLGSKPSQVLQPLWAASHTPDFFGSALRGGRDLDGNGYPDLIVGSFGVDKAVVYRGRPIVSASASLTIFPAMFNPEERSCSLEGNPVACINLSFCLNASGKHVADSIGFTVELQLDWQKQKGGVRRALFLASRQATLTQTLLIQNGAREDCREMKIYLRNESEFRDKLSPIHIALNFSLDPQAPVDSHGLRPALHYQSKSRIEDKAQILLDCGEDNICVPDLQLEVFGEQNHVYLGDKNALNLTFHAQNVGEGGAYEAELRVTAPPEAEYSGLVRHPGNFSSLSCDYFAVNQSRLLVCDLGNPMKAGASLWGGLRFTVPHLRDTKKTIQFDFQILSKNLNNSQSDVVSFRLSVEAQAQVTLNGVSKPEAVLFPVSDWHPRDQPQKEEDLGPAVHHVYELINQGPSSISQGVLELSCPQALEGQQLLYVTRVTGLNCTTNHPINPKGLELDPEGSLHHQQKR
Sequence of Integrin alpha-5/beta-1 (P08648 895-1049 limits assumed): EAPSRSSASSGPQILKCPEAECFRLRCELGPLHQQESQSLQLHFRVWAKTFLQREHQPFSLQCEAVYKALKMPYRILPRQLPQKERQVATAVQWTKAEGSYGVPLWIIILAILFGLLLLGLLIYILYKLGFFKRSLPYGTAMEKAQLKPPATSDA

Sequence of Integrin alpha-V/beta-3 (P05106 27-788 limits assumed): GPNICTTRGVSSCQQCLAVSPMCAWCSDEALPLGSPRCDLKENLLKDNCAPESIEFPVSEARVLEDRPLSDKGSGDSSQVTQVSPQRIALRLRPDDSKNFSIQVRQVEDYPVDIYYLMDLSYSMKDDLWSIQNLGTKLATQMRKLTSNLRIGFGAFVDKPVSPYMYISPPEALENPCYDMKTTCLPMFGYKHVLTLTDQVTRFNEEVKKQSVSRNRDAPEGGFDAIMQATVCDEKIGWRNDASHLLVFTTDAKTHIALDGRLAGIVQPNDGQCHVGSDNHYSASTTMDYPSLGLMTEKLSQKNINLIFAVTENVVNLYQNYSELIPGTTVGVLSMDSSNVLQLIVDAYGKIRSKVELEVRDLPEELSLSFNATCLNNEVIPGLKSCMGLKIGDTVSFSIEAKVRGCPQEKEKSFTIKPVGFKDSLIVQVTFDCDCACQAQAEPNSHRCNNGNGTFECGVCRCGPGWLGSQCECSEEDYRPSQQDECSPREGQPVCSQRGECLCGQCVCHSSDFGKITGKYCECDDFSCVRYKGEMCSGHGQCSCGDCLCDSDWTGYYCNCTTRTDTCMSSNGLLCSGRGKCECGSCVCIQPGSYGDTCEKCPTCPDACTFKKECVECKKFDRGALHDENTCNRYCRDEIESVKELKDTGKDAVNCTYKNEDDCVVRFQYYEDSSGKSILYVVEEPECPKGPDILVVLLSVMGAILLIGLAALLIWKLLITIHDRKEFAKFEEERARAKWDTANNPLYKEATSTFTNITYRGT
Sequence of Integrin alpha-V/beta-3 (P06756 31-889 limits assumed): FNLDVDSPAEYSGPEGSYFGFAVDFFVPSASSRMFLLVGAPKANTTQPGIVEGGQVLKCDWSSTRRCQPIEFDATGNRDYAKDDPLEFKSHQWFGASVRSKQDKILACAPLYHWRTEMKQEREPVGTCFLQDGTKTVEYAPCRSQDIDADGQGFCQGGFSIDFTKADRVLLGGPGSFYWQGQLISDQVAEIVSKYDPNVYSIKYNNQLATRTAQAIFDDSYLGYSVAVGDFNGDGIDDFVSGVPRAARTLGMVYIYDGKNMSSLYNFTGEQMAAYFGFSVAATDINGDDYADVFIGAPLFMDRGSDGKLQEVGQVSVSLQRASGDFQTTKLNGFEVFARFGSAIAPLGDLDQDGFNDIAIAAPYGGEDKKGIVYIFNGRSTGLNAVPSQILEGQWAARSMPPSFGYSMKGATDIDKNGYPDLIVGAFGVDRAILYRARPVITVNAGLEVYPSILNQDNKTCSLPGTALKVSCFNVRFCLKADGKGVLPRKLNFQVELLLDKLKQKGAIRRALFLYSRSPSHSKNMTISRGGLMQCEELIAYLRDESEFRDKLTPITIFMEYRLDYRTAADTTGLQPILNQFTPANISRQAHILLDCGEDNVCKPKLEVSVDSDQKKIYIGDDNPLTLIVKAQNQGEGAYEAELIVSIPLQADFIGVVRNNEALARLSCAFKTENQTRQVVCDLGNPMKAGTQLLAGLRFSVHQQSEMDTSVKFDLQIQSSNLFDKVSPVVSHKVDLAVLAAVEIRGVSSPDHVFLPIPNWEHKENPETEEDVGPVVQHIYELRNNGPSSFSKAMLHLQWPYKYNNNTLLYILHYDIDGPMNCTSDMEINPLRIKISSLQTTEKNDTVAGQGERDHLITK
Sequence of Integrin alpha-V/beta-3 (P06756 891-1048 limits assumed): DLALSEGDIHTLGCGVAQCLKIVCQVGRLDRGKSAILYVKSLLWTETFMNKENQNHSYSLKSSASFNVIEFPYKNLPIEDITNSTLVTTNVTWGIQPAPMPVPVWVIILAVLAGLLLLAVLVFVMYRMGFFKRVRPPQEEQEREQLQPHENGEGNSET

pIC50 (Integrin alpha-V/beta-3)	pIC50 (Integrin alpha-5/beta-1)	Compound
7.47	7.82	COC(=O)N1C[C@H]2C[C@H]3C[C@]31C(=O)N[C@@H](CCCNC(=N)N)C(=O)NCC(=O)N[C@@H](CC(=O)O)C(=O)N2
8.62	7.59	COC(=O)N1CC[C@H]2NC(=O)[C@H](CC(=O)O)NC(=O)CNC(=O)[C@H](CCCNC(=N)N)NC(=O)[C@@]13C[C@@H]23
